Legend:
Assay type in all cases: in vivo
[1] = test system: diet-induced obese (DIO) AKR/J mouse; experiment: Body weight, body composition (qMR) and liver weight in diet-induced obese AKR/J mice; conditions: for BW day 0: baseline before treatment; for Fat mass day 28 / Lean mass day 28: qMR; for Liver weight: terminal collection
Method: The effects of monotherapy with selective PPAR agonists, combination therapy with PPARα and PPARδ, and treatment with PPARpan agonists were evaluated in four experiments in diet-induced obese (DIO) AKR/J mouse. The AKR/J mouse is a polyoma-susceptible strain originally utilized to study accelerated tumor development. This strain becomes obese and hyperinsulemic when fed a high fat diet. Age-matched, male AKR/J mice were allowed ad libitum access to Research Diet D12331 (Research Diet, Brunswick, NJ) at the Jackson Laboratories (Bar Harbor, ME) beginning at 6 weeks of age. The diet has an energy density of 5.56 kcal/g (58% kcal from fat; 26% kcal from carbohydrates, and 16% kcal from protein). The animals were allowed to become obese, achieving BW >40 grams before shipping to GlaxoSmithKline laboratory animal facility at 13 weeks of age. The mice were housed 4 per cage in standard shoebox cages and were fed the high fat diet until they reached approximately 50 grams. Age-matched lean control animals obtained from Jackson Laboratories were fed a diet of normal chow (3.04 kcal/g energy density, 12% kcal from fat, LabDiet 5001, St. Louis, MO) and used for comparison.
At the beginning of each study, the animals were weighed and body composition obtained using an EchoMRI-100 quantitative magnetic resonance (qMR, EchoMRI, Houston, TX) whole body composition analyzer. […] 16 lean control mice on standard chow were used as reference. All mice were dosed orally with vehicle (0.5% methylcellulose and 0.1% Tween 80, 10 mL/kg) for six days prior to the beginning of dosing for acclimation to handling and treatment before drug treatment was initiated.
(§1) In each experiment, BW of each animal was measured and recorded three times weekly throughout the treatment period. Body mass was obtained weekly on days 0, 7, 13, 20, and 27 of treatment. The effects of selective PPARα, δ, and γ agonists on food consumption were also assessed. Food consumption is expressed as total energy consumed (kcal) over a 24-period and as cumulative consumption over the course of the experiment.
(§2) On the final day of each experiment, a terminal blood sample (800–1000 μL) was obtained via cardiac puncture under isoflurane anesthesia. Whole blood was placed in a Terumo Capiject blood collection tube (Terumo Medical Corp., Elkton, Md, USA), allowed to sit at room temperature for 20 minutes then centrifuged to obtain serum. Serum levels of glucose, triglycerides, glycerol, nonesterified fatty acids, total cholesterol, the high-density lipoprotein cholesterol, and β-hydroxybutyrate were determined in all mice using an Olympus AU640 clinical chemistry immuno-analyzer (Olympus America Inc., Melville, NY, USA). In addition, liver weights were obtained following the terminal blood sample on the final day of the study and samples were used to determine liver fatty acid oxidation activity.
(§3) Experiment 1 was designed to study the effects of a selective PPARα agonist and PPARδ agonist as mono and combination therapy. 48 mice were sorted into 6 groups and blocked such that initial BW and body composition were not different between groups. […] Two additional groups of mice were dosed for the first 14 days with either a PPARα agonist or a PPARδ agonist alone. At day 15, the PPARδ agonist was added to the treatment regimen of animals dosed with PPARα, and the PPARα agonist was added to the dosing material of animals previously dosed with PPARδ alone. The sixth group was dosed with both the PPARα and PPARδ agonists for the entire 28-day period. BW and food consumption were assessed 3 times per week and body composition was measured weekly.
In Experiment 2, 32 mice were sorted into 4 groups (n = 8/group) and dosed with vehicle and a selective PPARγ agonist (GW7845, 3 mg/kg) for 28 days. Rimonabant (RIM, 10 or 30 mg/kg, q.d.), a CB1 receptor antagonist, was used as a positive control for weight loss. […]

[2] = test system: diet-induced obese (DIO) AKR/J mouse; experiment: Food consumption in diet-induced obese AKR/J mice; conditions: compared to vehicle-treated animals; doses and regimen as in methods
Method: as §1
The fat content of Research Diets D12331 chow results in pellets that crumbles making it difficult to quantify food consumption thus, Research Diets D12451 chow (4.7 kcal/g (45% kcal from fat, 35% kcal from carbohydrates and 20% kcal from protein)) was used in studies where food consumption was determined as these pellets are more solid. The animals were transitioned two weeks before compound dosing from Research Diets D12331 chow to Research Diets D12451 chow. Previous experiments (data not presented) have shown that animals fed this diet maintain the same BW and fat mass level as observed at the time of transition.
as §3
In Experiment 2, 32 mice were sorted into 4 groups (n = 8/group) and dosed with vehicle and a selective PPARγ agonist (GW7845, 3 mg/kg) for 28 days. Rimonabant (RIM, 10 or 30 mg/kg, q.d.), a CB1 receptor antagonist, was used as a positive control for weight loss. As in Experiment 1, BW and food consumption were determined 3 times per week and body composition was measured weekly.

[3] = test system: diet-induced obese (DIO) AKR/J mouse; experiment: Serum clinical chemistry of terminal blood samples, DIO AKR/J mice; conditions: serum, end of treatment, 28 days
Method: as §2

SMILES: Cc1c(C(=O)NN2CCCCC2)nn(-c2ccc(Cl)cc2Cl)c1-c1ccc(Cl)cc1 [RIM, Rimonabant, reference compound]
- BW day 28 ([1]; 10 mg/kg oral, 28 days): 44.1 ± 1.3 grams
- BW day 28 ([1]; 30 mg/kg oral, 28 days): 41.8 ± 0.5 grams
- effect on FM (in words) ([1]; 28 days, doses as in methods): decreased FM in a dose-dependent manner
- BW day 0 ([1]; group dosed 10 mg/kg oral): 50.6 ± 0.8 grams
- BW day 0 ([1]; group dosed 30 mg/kg oral): 51.0 ± 0.7 grams
- reduction of BW ([1]; highest dose (30 mg/kg), within the first 10 days of treatment): 17%
- effect on BW (in words) ([1]; oral, 28 days, GW9578 1, GW0742 30, GW7845 3, RIM 10 and 30 mg/kg, PPARpan agonists): significant, dose-related decreases of BW
- Fat mass day 28 ([1]; 10 mg/kg oral, 28 days): 15.0 ± 0.9 grams
- Lean mass day 28 ([1]; 10 mg/kg oral, 28 days): 25.2 ± 0.8 grams
- Fat mass day 28 ([1]; 30 mg/kg oral, 28 days): 11.6 ± 0.3 grams
- Lean mass day 28 ([1]; 30 mg/kg oral, 28 days): 26.5 ± 0.5 grams
- Liver weight ([1]; 10 mg/kg oral, 28 days): 2.0 ± 0.1 grams
- Liver weight ([1]; 30 mg/kg oral, 28 days): 2.0 ± 0.1 grams
- effect on food consumption (in words) [2]: dose-related decreases in food consumption
- Cholesterol ([3]; 10 mg/kg oral): 147.3 ± 9.1 mg/dL
- Glucose ([3]; 10 mg/kg oral): 230.1 ± 16.6 mg/dL
- HDL-C ([3]; 10 mg/kg oral): 95.1 ± 4.6 mg/dL
- Insulin ([3]; 10 mg/kg oral): 7.2 ± 2.5 ng/mL
- NEFA ([3]; 10 mg/kg oral): 0.8 ± 0.05 mEq/L
- Triglyceride ([3]; 10 mg/kg oral): 181.4 ± 36.1 mg/dL
- bHBA ([3]; 10 mg/kg oral): 2.5 ± 0.2 mg/dL
- Cholesterol ([3]; 30 mg/kg oral): 143.4 ± 4.0 mg/dL
- Glucose ([3]; 30 mg/kg oral): 215.3 ± 13.0 mg/dL
- HDL-C ([3]; 30 mg/kg oral): 116.9 ± 2.6 mg/dL
- Insulin ([3]; 30 mg/kg oral): 3.4 ± 0.7 ng/mL
- NEFA ([3]; 30 mg/kg oral): 0.9 ± 0.02 mEq/L
- Triglyceride ([3]; 30 mg/kg oral): 159.7 ± 16.1 mg/dL
- bHBA ([3]; 30 mg/kg oral): 1.8 ± 0.2 mg/dL

Source: PMC1940322, “The Effect of PPARα, PPARδ, PPARγ, and PPARpan Agonists on Body Weight, Body Mass, and Serum Lipid Profiles in Diet-Induced Obese AKR/J Mice” (PPAR Research, 2007)
